Blank lines part the entries; values can stand above or below the molecule they belong to.
What was measured:
[1] = tested on: green foxtail; assay: greenhouse post-emergence herbicidal test, green foxtail; assay type: in vivo, Setaria viridis
Text: (§1) The seeds of the test plants were sown separately for each species. For the post-emergence treatment, the test plants were first grown to a height of 3 to 15 cm, depending on the plant habit, and only then treated with the active ingredients which had been suspended or emulsified in water. For this purpose, the test plants were either sown directly and grown in the same containers, or they were first grown separately as seedlings and transplanted into the test containers a few days prior to treatment. The rate of application for the post-emergence treatment was 1.0, 0.5, 0.25, 0.125 or 0.0625 kg/ha of a.s. (active substance). Depending on the species, the plants were kept at 10-25° C. or 20-35° C. The test period extended over 2 to 4 weeks. During this time, the plants were tended, and their response to the individual treatments was evaluated. Evaluation was carried out using a scale from 0 to 100. 100 means no emergence of the plants, or complete destruction of at least the aerial parts, and 0 means no damage, or normal course of growth. The plants used in the greenhouse experiments belonged to the following species: [table]

[2] = tested on: lambsquarters; assay: greenhouse post-emergence herbicidal test, lambsquarters; assay type: in vivo, Chenopodium album
Text: as §1

[3] = tested on: pig weed; assay: greenhouse post-emergence herbicidal test, pig weed; assay type: in vivo, Amaranthus retroflexus
Text: as §1

[4] = tested on: black bindweed; assay: greenhouse post-emergence herbicidal test, black bindweed; assay type: in vivo, Polygonum convolvulus
Text: as §1

[5] = tested on: cleavers harrif; assay: greenhouse post-emergence herbicidal test, cleavers harrif; assay type: in vivo, Galium aparine
Text: as §1

[6] = tested on: velvet leaf; assay: greenhouse post-emergence herbicidal test, velvet leaf; assay type: in vivo, Abutilon theophrasti; settings: application rate 0.5 kg/ha
Text: as §1

[7] = tested on: wild oat; assay: greenhouse post-emergence herbicidal test, wild oat; assay type: in vivo, Avena fatua; settings: application rate 0.5 kg/ha
Text: as §1

melting point: 212 °C
Structure (SMILES): CNC(=O)C(NC(=O)c1ccc(F)cc1C(F)(F)F)C(c1ccccc1)N(C=O)Cc1ccccc1 (stereo not shown) [Compound 3.43, N-[2-(N-Benzyl-N-formylamino)-1-methylcarbamoyl-2-phenylethyl]-4-fluoro-2-trifluoromethylbenzamide]

Structure (SMILES): CNC(=O)C(NC(=O)c1ccc(F)cc1C(F)(F)F)C(O)c1ccccc1OCc1ccccc1 (stereo not shown) [Compound 3.66]
post-emergence action against green foxtail ([1]; application rate 1.00 kg/ha): very good
post-emergence action against lambsquarters ([2]; application rate 1.00 kg/ha): very good
post-emergence action against pig weed ([3]; application rate 1.00 kg/ha): very good

Structure (SMILES): CNC(=O)[C@@H](NC(=O)c1ccc(F)cc1C(F)(F)F)[C@H](O)c1cccc(F)c1C [Compound 3.10]
post-emergence action against green foxtail ([1]; application rate 1.00 kg/ha): very good
post-emergence action against lambsquarters ([2]; application rate 1.00 kg/ha): very good
post-emergence action against pig weed ([3]; application rate 1.00 kg/ha): very good

Structure (SMILES): CNC(=O)[C@@H](NC(=O)c1ccc(F)cc1C(F)(F)F)[C@H](OC(=O)NS(=O)(=O)C(F)(F)F)c1cccc(F)c1C [Compound 3.137]
post-emergence action on black bindweed ([4]; application rate 1.00 kg/ha): very good
post-emergence action against lambsquarters ([2]; application rate 1.00 kg/ha): very good
post-emergence action against pig weed ([3]; application rate 1.00 kg/ha): very good

Structure (SMILES): CNC(=O)C(NC(=O)c1ccc(F)cc1C(F)(F)F)C(OC(=O)N(C)C)c1ccccc1COC(=O)N(C)C (stereo not shown) [Compound 3.131]
post-emergence action on black bindweed ([4]; application rate 0.5 kg/ha): very good
post-emergence action against lambsquarters ([2]; application rate 0.5 kg/ha): very good
post-emergence control of cleavers harrif ([5]; application rate 0.5 kg/ha): very good
post-emergence action against pig weed ([3]; application rate 0.5 kg/ha): very good

Structure (SMILES): CNC(=O)C(NC(=O)c1ccc(F)cc1C(F)(F)F)C(OC(=O)COCCOCCOC)c1ccccc1COC(=O)COCCOCCOC (stereo not shown) [Compound 3.96]
post-emergence action on black bindweed ([4]; application rate 0.5 kg/ha): very good
post-emergence action against lambsquarters ([2]; application rate 0.5 kg/ha): very good
post-emergence control of cleavers harrif ([5]; application rate 0.5 kg/ha): very good
post-emergence action against pig weed ([3]; application rate 0.5 kg/ha): very good

Structure (SMILES): CNC(=O)C(NC(=O)c1ccccc1SC(F)F)C(O)c1ccccc1 (racemic) [Compound 5.37]
post-emergence action on velvet leaf [6]: controlled
post-emergence control of wild oat [7]: controlled

Structure (SMILES): CNC(=O)C(NC(=O)c1ccc(F)cc1C(F)(F)F)C(O)c1ccccc1COC(C)=O (stereo not shown) [Compound 3.62]
post-emergence action against green foxtail ([1]; application rate 0.5 kg/ha): very good
post-emergence action against lambsquarters ([2]; application rate 0.5 kg/ha): very good
post-emergence control of cleavers harrif ([5]; application rate 0.5 kg/ha): very good
post-emergence action against pig weed ([3]; application rate 0.5 kg/ha): very good

Structure (SMILES): CNC(=O)C(NC(=O)c1cccc([N+](=O)[O-])c1C)C(O)c1ccccc1 (racemic) [Compound 5.20]
post-emergence action on velvet leaf [6]: very good

Structure (SMILES): CC[Si](CC)(CC)OCc1ccccc1C(O[Si](CC)(CC)CC)C(NC(=O)c1ccc(F)cc1C(F)(F)F)C(=O)NC (stereo not shown) [Compound 3.152]
post-emergence action against green foxtail ([1]; application rate 1.00 kg/ha): very good
post-emergence action against lambsquarters ([2]; application rate 1.00 kg/ha): very good
post-emergence control of cleavers harrif ([5]; application rate 1.0 kg/ha): very good
post-emergence action against pig weed ([3]; application rate 1.00 kg/ha): very good

Structure (SMILES): CNC(=O)C(NC(=O)c1ccc(F)cc1C(F)(F)F)C(O)c1ccccc1CO (stereo not shown) [Compound 3.61]
post-emergence action on black bindweed ([4]; application rate 0.5 kg/ha): very good
post-emergence action against lambsquarters ([2]; application rate 0.5 kg/ha): very good
post-emergence control of cleavers harrif ([5]; application rate 0.5 kg/ha): very good
post-emergence action against pig weed ([3]; application rate 0.5 kg/ha): very good

Structure (SMILES): CNC(=O)C(NC(=O)c1ccc(F)cc1C(F)(F)F)C(O)c1ccccc1COS(C)(=O)=O (stereo not shown) [Compound 3.65]
post-emergence action on black bindweed ([4]; application rate 0.5 kg/ha): very good
post-emergence action against lambsquarters ([2]; application rate 0.5 kg/ha): very good
post-emergence action against pig weed ([3]; application rate 0.5 kg/ha): very good

Structure (SMILES): CNC(=O)C(NC(=O)c1ccc(F)cc1C(F)(F)F)C(O)c1ccccc1[N+](=O)[O-] (racemic) [Compound 3.67]
post-emergence action against green foxtail ([1]; application rate 1.00 kg/ha): very good
post-emergence action against lambsquarters ([2]; application rate 1.00 kg/ha): very good
post-emergence action against pig weed ([3]; application rate 1.00 kg/ha): very good

Structure (SMILES): CNC(=O)C(NC(=O)c1ccccc1C(F)(F)F)C(O)c1ccccc1 (racemic) [Compound 3.2]
post-emergence action against green foxtail ([1]; application rate 1.00 kg/ha): very good
post-emergence action against lambsquarters ([2]; application rate 1.00 kg/ha): very good
post-emergence action against pig weed ([3]; application rate 1.00 kg/ha): very good

Structure (SMILES): CNC(=O)C(NC(=O)c1ccc(F)cc1C(F)(F)F)C(O[Si](C)(C)C(C)(C)C)c1ccccc1 (racemic) [Compound 3.154]
post-emergence action on black bindweed ([4]; application rate 1.00 kg/ha): very good
post-emergence action against green foxtail ([1]; application rate 1.00 kg/ha): very good
post-emergence action against lambsquarters ([2]; application rate 1.00 kg/ha): very good
post-emergence control of cleavers harrif ([5]; application rate 1.0 kg/ha): very good
post-emergence action against pig weed ([3]; application rate 1.00 kg/ha): very good

Structure (SMILES): CNC(=O)C(NC(=O)c1ccc(F)cc1C(F)(F)F)C(OC(=O)N(C)C)c1ccccc1C (stereo not shown) [Compound 3.28]
post-emergence action against green foxtail ([1]; application rate 1.00 kg/ha): very good
post-emergence action against lambsquarters ([2]; application rate 1.00 kg/ha): very good
post-emergence action against pig weed ([3]; application rate 1.00 kg/ha): very good

Structure (SMILES): CNC(=O)C(NC(=O)c1ccccc1OC(F)(F)F)C(O)c1ccccc1 (racemic) [Compound 5.36]
post-emergence action on velvet leaf [6]: very good

Structure (SMILES): CNC(=O)[C@@H](NC(=O)c1ccc(F)cc1C(F)(F)F)[C@H](OC(=O)COCCOCCOC)c1ccc(F)c(F)c1F [Compound 4.24]
post-emergence action against green foxtail ([1]; application rate 0.5 kg/ha): very good
post-emergence action against lambsquarters ([2]; application rate 0.5 kg/ha): very good
post-emergence control of cleavers harrif ([5]; application rate 0.5 kg/ha): very good
post-emergence action against pig weed ([3]; application rate 0.5 kg/ha): very good

Structure (SMILES): CNC(=O)C(NC(=O)c1ccc(F)cc1C(F)(F)F)C(OC(=O)N(C)C)c1cccc(N)c1 (racemic) [Compound 3.123]
post-emergence action on black bindweed ([4]; application rate 1.00 kg/ha): very good
post-emergence action against lambsquarters ([2]; application rate 1.00 kg/ha): very good
post-emergence action against pig weed ([3]; application rate 1.00 kg/ha): very good

Structure (SMILES): CNC(=O)[C@@H](NC(=O)c1ccc(F)cc1C(F)(F)F)[C@H](O)c1cccc(Cl)c1C [Compound 3.11]
post-emergence action against green foxtail ([1]; application rate 1.00 kg/ha): very good
post-emergence action against lambsquarters ([2]; application rate 1.00 kg/ha): very good
post-emergence action against pig weed ([3]; application rate 1.00 kg/ha): very good

Structure (SMILES): CNC(=O)C(NC(=O)c1ccc(F)cc1C(F)(F)F)C(OC(=O)N(C)C)c1cccc(NS(C)(=O)=O)c1 (racemic) [Compound 3.128]
post-emergence action against green foxtail ([1]; application rate 1.00 kg/ha): very good
post-emergence action against lambsquarters ([2]; application rate 1.00 kg/ha): very good
post-emergence action against pig weed ([3]; application rate 1.00 kg/ha): very good

Source: patent US7687435B2, “Benzoyl-substituted phenylalanineamides” (BASF Aktiengesellschaft, priority 2003, dated 2010)
